Experimental data published in PubChem BioAssay (NCI).
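Compound exposure: 48 hours, 5 concentrations, 96-well plates. GI50: concentration for 50% inhibition of growth. TGI denotes the concentration required for complete inhibition of growth.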

Columns and labels:
Assay in all cases: NCI anticancer screen, dose series, 48 h
HL-60(TB) leukemia = tested on: HL-60(TB) leukemia
K-562 leukemia = tested on: K-562 leukemia
KM12 colon = tested on: KM12 colon
NCI-H460 lung = tested on: NCI-H460 lung
RXF 393 renal = tested on: RXF 393 renal
SF-268 CNS = tested on: SF-268 CNS
SK-MEL-28 melanoma = tested on: SK-MEL-28 melanoma
SK-MEL-5 melanoma = tested on: SK-MEL-5 melanoma
U251 CNS = tested on: U251 CNS
UACC-257 melanoma = tested on: UACC-257 melanoma

For `O=C1C(=O)c2ccccc2C(O)=C1CN(CCCl)CCCl`, the TGI (HL-60(TB) leukemia) was greater than 100 µM, the TGI (K-562 leukemia) was greater than 100 µM and the TGI (KM12 colon) was greater than 100 µM. For the same compound, the TGI (NCI-H460 lung) was greater than 100 µM, the TGI (RXF 393 renal) was greater than 100 µM and the TGI (SF-268 CNS) was greater than 100 µM. For the same compound, the TGI (SK-MEL-28 melanoma) was greater than 100 µM, the TGI (SK-MEL-5 melanoma) was greater than 100 µM and the TGI (U251 CNS) was greater than 100 µM.
With `NC(CCP(=O)(O)CCC1C=CC=CC1)C(=O)O` (stereo not drawn) the TGI (HL-60(TB) leukemia) was greater than 100 µM, the TGI (K-562 leukemia) was greater than 100 µM and the TGI (KM12 colon) was greater than 100 µM. For the same compound, the TGI (NCI-H460 lung) was greater than 100 µM, the TGI (RXF 393 renal) was greater than 100 µM and the TGI (SF-268 CNS) was greater than 100 µM. The TGI (SK-MEL-28 melanoma) was greater than 100 µM, the TGI (SK-MEL-5 melanoma) was greater than 100 µM and the TGI (U251 CNS) was greater than 100 µM. For the same compound, the TGI (UACC-257 melanoma) was greater than 100 µM.
`Nc1ccc2c3c(n(CCCCl)c(=O)c2c1)-c1cc2c(cc1C3=O)OCO2` was tested, and the GI50 (HL-60(TB) leukemia) was greater than 100 µM, the TGI (HL-60(TB) leukemia) was greater than 100 µM and the GI50 (K-562 leukemia) was greater than 100 µM. For the same compound, the TGI (K-562 leukemia) was greater than 100 µM, the GI50 (KM12 colon) was 41.6 µM and the TGI (KM12 colon) was greater than 100 µM. The GI50 (NCI-H460 lung) was 0.14 µM, the TGI (NCI-H460 lung) was greater than 100 µM and the GI50 (RXF 393 renal) was 55.1 µM. For the same compound, the TGI (RXF 393 renal) was greater than 100 µM, the GI50 (SF-268 CNS) was greater than 100 µM and the TGI (SF-268 CNS) was greater than 100 µM. For the same compound, the GI50 (SK-MEL-28 melanoma) was greater than 100 µM, the TGI (SK-MEL-28 melanoma) was greater than 100 µM and the GI50 (SK-MEL-5 melanoma) was 0.12 µM. It also gave a TGI (SK-MEL-5 melanoma) of 0.714 µM, a GI50 (U251 CNS) greater than 100 µM and a TGI (U251 CNS) greater than 100 µM. The GI50 (UACC-257 melanoma) was greater than 100 µM and the TGI (UACC-257 melanoma) was greater than 100 µM.
`Cc1cccc2[s+]snc12` gave a TGI (HL-60(TB) leukemia) of 41.8 µM, a TGI (K-562 leukemia) of 59.3 µM and a TGI (KM12 colon) greater than 100 µM. It also gave a TGI (NCI-H460 lung) greater than 100 µM, a TGI (RXF 393 renal) greater than 75.1 µM and a TGI (SF-268 CNS) greater than 100 µM. It also gave a TGI (SK-MEL-28 melanoma) greater than 70.7 µM, a TGI (SK-MEL-5 melanoma) greater than 100 µM and a TGI (U251 CNS) greater than 100 µM. It also gave a TGI (UACC-257 melanoma) greater than 100 µM.
`COc1cc(C2=C(C#N)C(N)OC3=C2COc2ccccc23)cc(OC)c1OC` (stereo not drawn) showed a TGI (HL-60(TB) leukemia) greater than 100 µM, a TGI (K-562 leukemia) greater than 100 µM and a TGI (KM12 colon) greater than 100 µM. The TGI (NCI-H460 lung) was 84.8 µM, the TGI (SF-268 CNS) was 89.1 µM and the TGI (SK-MEL-28 melanoma) was greater than 100 µM. It also gave a TGI (SK-MEL-5 melanoma) greater than 100 µM, a TGI (U251 CNS) of 33.2 µM and a TGI (UACC-257 melanoma) greater than 100 µM.
Work on `COC1CC(OC2CCC3(C)C(CCC45CCC(C6=CC(=O)OC6)C(C)(CCC43)C5=O)C2)OC(C)C1O` (stereo not drawn) yielded a TGI (HL-60(TB) leukemia) of 43.7 µM, a TGI (K-562 leukemia) greater than 100 µM and a TGI (KM12 colon) greater than 100 µM. For the same compound, the TGI (NCI-H460 lung) was 32.4 µM, the TGI (RXF 393 renal) was 89.4 µM and the TGI (SF-268 CNS) was 44 µM. For the same compound, the TGI (SK-MEL-28 melanoma) was greater than 100 µM, the TGI (SK-MEL-5 melanoma) was 41.9 µM and the TGI (U251 CNS) was greater than 100 µM. It also gave a TGI (UACC-257 melanoma) greater than 100 µM.
With `O=[N+]([O-])c1ccc(Nc2nc3ccccc3s2)cc1` the TGI (K-562 leukemia) was 35 µM, the TGI (KM12 colon) was greater than 100 µM and the TGI (NCI-H460 lung) was greater than 100 µM. It also gave a TGI (RXF 393 renal) of 28.9 µM, a TGI (SF-268 CNS) of 91.7 µM and a TGI (SK-MEL-28 melanoma) greater than 100 µM. The TGI (SK-MEL-5 melanoma) was 56.7 µM, the TGI (U251 CNS) was 39.3 µM and the TGI (UACC-257 melanoma) was 75.6 µM.
Compound `N=C(N)c1csc([C@@H]2O[C@H](CO)[C@@H](O)[C@H]2O)n1` has a TGI (HL-60(TB) leukemia) greater than 100 µM, a TGI (K-562 leukemia) greater than 100 µM and a TGI (KM12 colon) greater than 100 µM. For the same compound, the TGI (NCI-H460 lung) was greater than 100 µM, the TGI (RXF 393 renal) was greater than 100 µM and the TGI (SF-268 CNS) was greater than 100 µM. It also gave a TGI (SK-MEL-28 melanoma) greater than 100 µM, a TGI (SK-MEL-5 melanoma) greater than 100 µM and a TGI (U251 CNS) greater than 100 µM. The TGI (UACC-257 melanoma) was greater than 100 µM.
With `CCC(=O)NC(Nc1ccc(O)cc1)(C(F)(F)F)C(F)(F)F` the TGI (HL-60(TB) leukemia) was 46.5 µM, the TGI (K-562 leukemia) was greater than 100 µM and the TGI (KM12 colon) was greater than 100 µM. For the same compound, the TGI (NCI-H460 lung) was greater than 100 µM, the TGI (RXF 393 renal) was greater than 100 µM and the TGI (SF-268 CNS) was greater than 100 µM. The TGI (SK-MEL-28 melanoma) was greater than 100 µM, the TGI (U251 CNS) was greater than 100 µM and the TGI (UACC-257 melanoma) was greater than 100 µM.
For `c1cn2cc(-c3ccc4ncn(C5CCCCC5)c4c3)nc(-c3ccc4c(c3)ncn4C3CCCCC3)c2n1`, the GI50 (HL-60(TB) leukemia) was 1.84 µM, the TGI (HL-60(TB) leukemia) was 4.57 µM and the GI50 (K-562 leukemia) was 2.58 µM. For the same compound, the TGI (K-562 leukemia) was greater than 100 µM, the GI50 (NCI-H460 lung) was 1.98 µM and the TGI (NCI-H460 lung) was 4.02 µM. For the same compound, the GI50 (RXF 393 renal) was 1.51 µM, the TGI (RXF 393 renal) was 3 µM and the GI50 (SF-268 CNS) was 1.59 µM. For the same compound, the TGI (SF-268 CNS) was 3.15 µM, the GI50 (SK-MEL-28 melanoma) was 1.81 µM and the TGI (SK-MEL-28 melanoma) was 3.41 µM. The GI50 (SK-MEL-5 melanoma) was 1.49 µM, the TGI (SK-MEL-5 melanoma) was 2.83 µM and the GI50 (U251 CNS) was 1.91 µM. It also gave a TGI (U251 CNS) of 3.65 µM, a GI50 (UACC-257 melanoma) of 2.1 µM and a TGI (UACC-257 melanoma) of 3.62 µM.
`CC(C)(C)[Si](C)(C)OCC1CCC(n2cnc3c(N)ncnc32)O1` (stereo not drawn) was tested, and the TGI (HL-60(TB) leukemia) was greater than 100 µM, the TGI (K-562 leukemia) was greater than 100 µM and the TGI (KM12 colon) was greater than 100 µM. For the same compound, the TGI (NCI-H460 lung) was greater than 100 µM, the TGI (RXF 393 renal) was greater than 100 µM and the TGI (SK-MEL-28 melanoma) was greater than 100 µM. It also gave a TGI (SK-MEL-5 melanoma) of 34.4 µM, a TGI (U251 CNS) greater than 100 µM and a TGI (UACC-257 melanoma) greater than 100 µM.
`NNc1nc2ccccc2s1` was tested, and the TGI (HL-60(TB) leukemia) was greater than 100 µM, the TGI (K-562 leukemia) was greater than 100 µM and the TGI (KM12 colon) was greater than 100 µM. It also gave a TGI (NCI-H460 lung) greater than 100 µM, a TGI (RXF 393 renal) greater than 100 µM and a TGI (SF-268 CNS) greater than 100 µM. The TGI (SK-MEL-28 melanoma) was greater than 100 µM, the TGI (SK-MEL-5 melanoma) was greater than 100 µM and the TGI (U251 CNS) was greater than 100 µM. The TGI (UACC-257 melanoma) was greater than 100 µM.
Work on `CC12CCC(C(=O)N3CC=CCC3)(OC1=O)C2(C)C` (stereo not drawn) yielded a TGI (HL-60(TB) leukemia) greater than 100 µM, a TGI (K-562 leukemia) greater than 100 µM and a TGI (KM12 colon) greater than 100 µM. The TGI (NCI-H460 lung) was greater than 100 µM, the TGI (RXF 393 renal) was greater than 100 µM and the TGI (SF-268 CNS) was greater than 100 µM. It also gave a TGI (SK-MEL-28 melanoma) greater than 100 µM, a TGI (SK-MEL-5 melanoma) greater than 100 µM and a TGI (U251 CNS) greater than 100 µM. It also gave a TGI (UACC-257 melanoma) greater than 100 µM.
